According to PubChem BioAssay (NCI):
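Protocol summary: plate cells (96-well), add compound at 5 concentrations, incubate 48 h, interpolate endpoints linearly. TGI: total growth inhibition.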

Legend:
Assay in all cases: growth of human tumour cells (NCI), 48 h
[1] = test system: OVCAR-4 ovarian
[2] = test system: HCT-116 colon
[3] = test system: A549 NSCLC
[4] = test system: HOP-62 NSCLC
[5] = test system: RXF 393 renal
[6] = test system: K-562 leukemia
[7] = test system: OVCAR-8 ovarian
[8] = test system: MCF7 breast
[9] = test system: NCI/ADR-RES ovarian
[10] = test system: NCI-H460 lung
[11] = test system: HS 578T breast
[12] = test system: OVCAR-3 ovarian
[13] = test system: SK-MEL-28 melanoma
[14] = test system: TK-10 renal
[15] = test system: DU-145 prostate
[16] = test system: SNB-75 CNS
[17] = test system: U251 CNS

| Compound | TGI [1] | TGI [2] | TGI [3] | TGI [4] | TGI [5] | TGI [6] | TGI [7] | TGI [8] | TGI [9] | TGI [10] | TGI [11] | TGI [12] | TGI [13] | TGI [14] | TGI [15] | TGI [16] | TGI [17] |
| --- | --- | --- | --- | --- | --- | --- | --- | --- | --- | --- | --- | --- | --- | --- | --- | --- | --- |
| CC1=C(C)C1[N+](=O)[O-] | > 100 µM | > 100 µM | > 100 µM | > 100 µM | > 100 µM | > 100 µM | > 100 µM | > 100 µM | > 100 µM | > 100 µM | > 100 µM | > 100 µM | > 100 µM | > 100 µM | > 100 µM | > 100 µM | > 100 µM |
| C=CCN1C(=O)/C(=C/c2ccc(C)cc2)NC1=S | > 100 µM | > 100 µM | > 100 µM | > 100 µM | > 100 µM | > 100 µM | > 100 µM | > 100 µM | > 100 µM | > 100 µM | > 100 µM | > 100 µM | > 100 µM | > 100 µM | > 100 µM | > 100 µM | > 100 µM |
| Cc1ccc(C(=O)Nc2ccc(CP(=O)(O)O)cc2CP(=O)(O)O)cc1NC(=O)c1cccc(NC(=O)Nc2cccc(C(=O)Nc3cc(C(=O)Nc4ccc(CP(=O)(O)O)cc4CP(=O)(O)O)ccc3C)c2)c1 | > 100 µM | > 100 µM | > 100 µM | > 100 µM | > 100 µM | > 100 µM | > 100 µM | > 100 µM | > 100 µM | > 100 µM | > 100 µM | > 100 µM | > 100 µM | > 100 µM | > 100 µM | > 100 µM | > 100 µM |
| Cc1ccc(C)n1-c1ccccc1C1C=CN(C(=O)OC(C)(C)C)C=C1 | > 100 µM | 45.1 µM | > 100 µM | > 100 µM | 60.4 µM | > 100 µM | > 100 µM | 32.6 µM | > 100 µM | 96.9 µM | > 100 µM | 46.8 µM | > 100 µM | > 100 µM | > 100 µM | 56.6 µM | 77.8 µM |
| Nc1nc2n[nH]nc2c(=O)[nH]1 | > 100 µM | 8.95 µM | > 100 µM | 9.42 µM | 2.95 µM | > 100 µM | > 100 µM | > 100 µM | > 100 µM | > 89.4 µM | 20.4 µM | 73.8 µM | 9.4 µM | 12.7 µM | > 57.5 µM | > 66.8 µM | > 100 µM |
| COc1ccc(C2=NN(C(N)=S)C(c3ccccc3)C2)cc1 (stereo unspecified) | > 100 µM | > 100 µM | > 100 µM | > 100 µM | 88.4 µM | > 100 µM | > 100 µM | 69.6 µM | > 100 µM | > 100 µM | > 100 µM | > 100 µM | > 100 µM | > 100 µM | > 100 µM | 87.5 µM | > 100 µM |
| NC1CC(Cl)c2c(Cl)sc(Cl)c21 (stereo unspecified) | > 100 µM | > 100 µM | > 100 µM | > 100 µM | > 100 µM | > 100 µM | > 100 µM | > 100 µM | > 100 µM | > 100 µM | > 100 µM | > 100 µM | > 100 µM | > 100 µM | > 100 µM | > 100 µM | > 100 µM |
| CC1(C)C/C(=N/O)c2c(nc3ccc4ccccc4c3c2-c2ccc(Cl)cc2)C1 | 30.4 µM | 24.1 µM | 51 µM | 92.2 µM | 39.4 µM | 65.6 µM | 25 µM | 24.1 µM | 39.3 µM | 19.7 µM | 76.2 µM | 24.7 µM | > 100 µM | 33.9 µM | 40.9 µM | 35.7 µM | 24 µM |
| CN1C(=O)C(c2c[nH]c3ccccc23)N(C)C(=O)C1c1c[nH]c2ccccc12 (stereo unspecified) | > 100 µM | > 100 µM | > 100 µM | > 100 µM | > 100 µM | > 100 µM | > 100 µM | > 100 µM | > 100 µM | > 100 µM | > 100 µM | > 100 µM | > 100 µM | > 100 µM | > 100 µM | 88.2 µM | > 100 µM |
| CN(C)CCCNc1c(C#N)[n+]([O-])c2cc(Cl)ccc2[n+]1[O-] | 14.2 µM | 30 µM | 31.5 µM | > 48.7 µM | > 100 µM | 20.8 µM | > 51.3 µM | > 52.7 µM | > 57.3 µM | 13.2 µM | > 100 µM | > 34.9 µM | > 100 µM | > 39.9 µM | > 100 µM | > 100 µM | > 66.6 µM |
| OC1[C@H](O)CN(OCc2ccccc2)C[C@@H]1O (stereo partly specified) | > 100 µM | > 100 µM | > 100 µM | > 100 µM | > 100 µM | > 100 µM | > 100 µM | > 100 µM | > 100 µM | > 100 µM | > 100 µM | > 100 µM | > 100 µM | > 100 µM | > 100 µM | > 100 µM | > 100 µM |
| CC1=NN(C(=O)CC(=O)Nc2ccc(C)cc2)C(=O)C1N=Nc1ccc(S(=O)(=O)c2ccc(N=NC3C(=O)N(C(=O)CC(=O)Nc4ccc(C)cc4)N=C3C)cc2)cc1 (stereo unspecified) | > 100 µM | > 100 µM | > 100 µM | > 100 µM | > 100 µM | > 100 µM | > 100 µM | > 100 µM | > 100 µM | > 100 µM | > 100 µM | > 100 µM | > 100 µM | > 100 µM | > 100 µM | > 100 µM | > 100 µM |
| CCN(C(C)=O)c1cnc(/C=N/NC(N)=S)c2ccccc12 | > 100 µM | > 100 µM | > 88.3 µM | > 60.1 µM | > 100 µM | > 100 µM | > 34.6 µM | > 23.8 µM | 58.6 µM | > 39.1 µM | > 100 µM | > 100 µM | > 100 µM | > 100 µM | > 25 µM | > 100 µM | > 100 µM |
